Legend:
[1] = system: Male and female Balb/cJ mice; assay: Hair regrowth on shaved dorsal skin of mice after topical treatment; assay type: in vivo
Method: Hair regrowth was monitored daily. […] The hair length was measured by digital pachymeter.
Drug administration bpV(pic) (Sigma Aldrich, San Louis, MO, USA) was reconstituted in sterile Milli-Q water. bpV(pic) was also used to prepare a 10 μM bpV(pic) gel using 2% carmellose gel base (vehicle). bpV(pic) or vehicle gel was topically applied to the skin twice a day.
The dorsal skin of male and female mice was shaved and treated with vehicle or bpV (pic) topically, twice a day for 21 days (FIG. 1A).
The dorsal skin of male and female mice was shaved and treated with vehicle or SF1670 (N-(9,10-Dioxo-9,10-dihydro-phenanthren-2-yl)-2,2-dimethylpropionamide, N-(9,10-dihydro-9,10-dioxo-2-phenanthrenyl)-2,2-dimethyl-propanamide) topically, twice a day for 5 weeks. Hairs were collected once a week and measured using a millimeter (mm) as the measurement unit.

[2] = system: proliferative cells in the hair follicle and interfollicular epidermis; details: after 10 days, BrdU positive cells per field
Method: BrdU labeling and cell proliferation BrdU (10 mg/ml) was injected in mice via IP two hours previous to the euthanasia. Tissue was collected and processed. The tissue was placed on slides and deparaffinized in xylene substitute and hydrated in descending grades of ethanol. Antigen retrieval was performed by HCL at 37° C. for 1 hour. Anti-BrdU (1:200, Novus Biologicals, Centennial, CO) was incubated overnight at 4° C., followed by secondary antibody conjugated with Alexa 488 incubation and counterstaining with Hoechst 33342. All slides were mounted using Fluoroshield. For quantification, ten fields were captured at a magnification of x400. The images were analyzed using ImageJ (NIH, Bethesda, MD, USA), and the proliferation was expressed as the number of positive cells per field.
(§1) Skin samples were taken from treated and vehicle control mice and stained to evaluate skin histomorphology. Hair follicle cycle was evaluated by morphology and divided into 3 phases: growth phase (anagen); regression phase (catagen); and telogen. […] Proliferative cells in the hair follicle (follicular) and interfollicular epidermis (Interfollicular) were quantified for the identified timepoints.

[3] = system: Human epidermal keratinocytes (HEK); details: HEK monolayer, 48 hrs treatment (FIG. 3D)
Method: (§2) Flow cytometry analysis Isolation of skin single-cell suspension. Briefly, the subcutis underlying the dorsal skin was removed, and the epithelial cell layer was trypsinized for 2 hours at 37° C. Epithelial cell suspensions were filtered through 70 μm mesh filters (BD Bioscience, San Jose, CA, USA) to achieve a single cell suspension. Cells were maintained on ice. Immunofluorescence staining for CD34-FITC and CD49f-P.E./Cye5 primary antibodies (BD Pharmingen, San Jose, CA, USA) was performed to detected hair follicle stem cells. Antibodies were incubated with the cells for 30 minutes at 4° C. after cells were incubated with FcR blocking reagent (Miltenyi Biotec, Bergisch Gladbach, Germany). Human epidermal keratinocytes (HEK) (Cell Applications, Inc., San Diego, CA) were cultured in Epi-Vita Growth Medium (Cell Applications, Inc., San Diego, CA) and maintained at 37° C. with 5% of CO2 in a humidified incubator. Human epidermal keratinocytes (HEK) were cultured in a monolayer following instructions for culture of primary cells and received BpV(pic) or vehicle for 48 hrs. Treated cells were trypsinized and stained for CD44-APC (BD Pharmingen, San Jose, CA, USA) and Aldefluor kit (StemCell Technologies, Durham, NC, USA) according to the manufacturer's instructions to detected aldehyde dehydrogenase (ALDH) enzymatic activity. […]

hair follicle stem cells = details: treated mice, FACS (FIGS. 3B-3C)
Method: as §2

hair follicles = details: skin samples of treated mice, H&E (FIG. 2A)
Method: as §1

SMILES	hair regrowth (hair length) compared to vehicle control ([1]; topically twice a day for 5 weeks, hairs measured once a week (FIG. 4))	proliferative cells in the hair follicle (follicular) versus vehicle control [2]	proliferative cells in the interfollicular epidermis versus vehicle control [2]	stem cell number in human stem cells compared to vehicle control [3]	number of hair follicle stem cells compared to vehicle control (hair follicle stem cells)	hair follicle cycle phase by morphology (hair follicles)	hair regrowth (hair length) in comparison to the vehicle control ([1]; 10 μM gel topically twice a day for 21 days, shaved dorsal skin, all subjects (FIG. 1B))
CC(C)(C)C(=O)Nc1ccc2c(c1)C(=O)C(=O)c1ccccc1-2 [SF1670, N-(9,10-Dioxo-9,10-dihydro-phenanthren-2-yl)-2,2-dimethylpropionamide]	faster hair regrowth						
O=C([O-])c1ccccn1.[K+].[K+].[O-2].[O-][O-].[O-][O-].[V+5] [bpV(pic), dipotassium bisperoxo(pyridine-2-carboxyl)oxovanadate]		increased	increased	confirmed	increased	anagen phase	induced hair regrowth

Source: US20240350436A1, “METHODS FOR HAIR GROWTH” (THE REGENTS OF THE UNIVERSITY OF MICHIGAN, priority 2021, published 2024)
